Where a name gives a salt, the structure may show the parent alone.
Experiments:
Conditions in all cases: exposure time: 72 h
[1] = tested on: E21 (patient-derived glioblastoma stem cells of mesenchymal subtype); assay: surviving fraction (nuclei count normalised to DMSO); higher = more cells surviving (less toxic)
[2] = tested on: E57 (patient-derived glioblastoma stem cells of mesenchymal subtype); assay: as above
[3] = tested on: FT3469 (normal neural stem cell line); assay: as above
[4] = tested on: E31 (patient-derived glioblastoma stem cells of proneural subtype); assay: as above
[5] = tested on: E28 (patient-derived glioblastoma stem cells of classical subtype); assay: as above
[6] = tested on: E13 (patient-derived glioblastoma stem cells of classical subtype); assay: as above
[7] = tested on: E34 (patient-derived glioblastoma stem cells of proneural subtype); assay: as above
[8] = tested on: E21; assay: phenotypic distance (Euclidean, principal components) from DMSO controls (arbitrary units); higher = stronger morphological change
[9] = tested on: E57; assay: as above
[10] = tested on: FT3469; assay: as above
[11] = tested on: E31; assay: as above
[12] = tested on: E28; assay: as above
[13] = tested on: E13; assay: as above
[14] = tested on: E34; assay: as above
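Throughout, for phenotypic distance (Euclidean, principal components) from DMSO controls: cell Painting imaging in 384-well plates, CellProfiler features reduced to at least 20 principal components, Euclidean distance versus same-plate DMSO vehicle wells (0.1% v/v), median over six images per well.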
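Throughout, for surviving fraction (nuclei count normalised to DMSO): nuclei counted by high-content imaging of Hoechst-stained cells in laminin-coated 384-well plates, relative to 0.1% DMSO vehicle wells, with staurosporine as cell-death control.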

In the case of `C=C[C@H]1CN2CC[C@H]1C[C@@H]2[C@@H](O)c1ccnc2ccc(OC)cc12` [Quinidine hydrochloride monohydrate], the surviving fraction ([1]; 4.1 nM) is reported as 0.736, the surviving fraction ([1]; 12.3 nM) is reported as 1.03 and the surviving fraction ([1]; 37 nM) is reported as 0.863. The surviving fraction ([1]; 111.1 nM) was 1.03, the surviving fraction ([1]; 333.3 nM) was 1 and the surviving fraction ([1]; 1000 nM) was 0.964. It also gave a surviving fraction ([1]; 3000 nM) of 0.865, a surviving fraction ([2]; 4.1 nM) of 1.05 and a surviving fraction ([2]; 12.3 nM) of 1.09. For the same compound, the surviving fraction ([2]; 37 nM) was 1.04, the surviving fraction ([2]; 111.1 nM) was 1.07 and the surviving fraction ([2]; 333.3 nM) was 1.05. It also gave a surviving fraction ([2]; 1000 nM) of 1.09, a surviving fraction ([2]; 3000 nM) of 1.12 and a surviving fraction ([3]; 4.1 nM) of 0.974. The surviving fraction ([3]; 12.3 nM) was 0.955, the surviving fraction ([3]; 37 nM) was 1.03 and the surviving fraction ([3]; 111.1 nM) was 1.14. For the same compound, the surviving fraction ([3]; 333.3 nM) was 1.03, the surviving fraction ([3]; 1000 nM) was 0.998 and the surviving fraction ([3]; 3000 nM) was 0.957. For the same compound, the surviving fraction ([4]; 4.1 nM) was 1.04, the surviving fraction ([4]; 12.3 nM) was 0.915 and the surviving fraction ([4]; 37 nM) was 0.941. It also gave a surviving fraction ([4]; 111.1 nM) of 0.942, a surviving fraction ([4]; 333.3 nM) of 1.04 and a surviving fraction ([4]; 1000 nM) of 0.944. For the same compound, the surviving fraction ([4]; 3000 nM) was 1.09, the surviving fraction ([5]; 4.1 nM) was 1.12 and the surviving fraction ([5]; 12.3 nM) was 0.991. The surviving fraction ([5]; 37 nM) was 1.14, the surviving fraction ([5]; 111.1 nM) was 1.02 and the surviving fraction ([5]; 333.3 nM) was 1.15. It also gave a surviving fraction ([5]; 1000 nM) of 1.07, a surviving fraction ([5]; 3000 nM) of 1.2 and a surviving fraction ([6]; 4.1 nM) of 0.965. For the same compound, the surviving fraction ([6]; 12.3 nM) was 1.04, the surviving fraction ([6]; 37 nM) was 1.06 and the surviving fraction ([6]; 111.1 nM) was 1.03. It also gave a surviving fraction ([6]; 333.3 nM) of 0.954, a surviving fraction ([6]; 1000 nM) of 1.09 and a surviving fraction ([6]; 3000 nM) of 1.01. It also gave a surviving fraction ([7]; 4.1 nM) of 1.06, a surviving fraction ([7]; 12.3 nM) of 0.922 and a surviving fraction ([7]; 37 nM) of 0.904. The surviving fraction ([7]; 111.1 nM) was 0.914, the surviving fraction ([7]; 333.3 nM) was 1.02 and the surviving fraction ([7]; 1000 nM) was 0.91. The surviving fraction ([7]; 3000 nM) was 0.984, the phenotypic distance ([8]; 4.1 nM) was 1.42 and the phenotypic distance ([8]; 12.3 nM) was 0.785. The phenotypic distance ([8]; 37 nM) was 0.783, the phenotypic distance ([8]; 111.1 nM) was 0.852 and the phenotypic distance ([8]; 333.3 nM) was 0.814. For the same compound, the phenotypic distance ([8]; 1000 nM) was 0.565, the phenotypic distance ([8]; 3000 nM) was 1.06 and the phenotypic distance ([9]; 4.1 nM) was 0.629. The phenotypic distance ([9]; 12.3 nM) was 0.932, the phenotypic distance ([9]; 37 nM) was 0.42 and the phenotypic distance ([9]; 111.1 nM) was 5.48. For the same compound, the phenotypic distance ([9]; 333.3 nM) was 0.376, the phenotypic distance ([9]; 1000 nM) was 0.318 and the phenotypic distance ([9]; 3000 nM) was 0.734. The phenotypic distance ([10]; 4.1 nM) was 1.14, the phenotypic distance ([10]; 12.3 nM) was 0.621 and the phenotypic distance ([10]; 37 nM) was 0.809. It also gave a phenotypic distance ([10]; 111.1 nM) of 0.891, a phenotypic distance ([10]; 333.3 nM) of 0.965 and a phenotypic distance ([10]; 1000 nM) of 0.266. For the same compound, the phenotypic distance ([10]; 3000 nM) was 0.69, the phenotypic distance ([11]; 4.1 nM) was 1.52 and the phenotypic distance ([11]; 12.3 nM) was 0.739. For the same compound, the phenotypic distance ([11]; 37 nM) was 0.504, the phenotypic distance ([11]; 111.1 nM) was 0.428 and the phenotypic distance ([11]; 333.3 nM) was 0.941. For the same compound, the phenotypic distance ([11]; 1000 nM) was 0.478, the phenotypic distance ([11]; 3000 nM) was 0.676 and the phenotypic distance ([12]; 4.1 nM) was 0.692. The phenotypic distance ([12]; 12.3 nM) was 0.479, the phenotypic distance ([12]; 37 nM) was 0.471 and the phenotypic distance ([12]; 111.1 nM) was 0.837. It also gave a phenotypic distance ([12]; 333.3 nM) of 0.667, a phenotypic distance ([12]; 1000 nM) of 0.843 and a phenotypic distance ([12]; 3000 nM) of 0.738. For the same compound, the phenotypic distance ([13]; 4.1 nM) was 2.06, the phenotypic distance ([13]; 12.3 nM) was 2.74 and the phenotypic distance ([13]; 37 nM) was 0.288. It also gave a phenotypic distance ([13]; 111.1 nM) of 0.43, a phenotypic distance ([13]; 333.3 nM) of 3.29 and a phenotypic distance ([13]; 1000 nM) of 0.415. It also gave a phenotypic distance ([13]; 3000 nM) of 0.498, a phenotypic distance ([14]; 4.1 nM) of 1.26 and a phenotypic distance ([14]; 12.3 nM) of 0.809. For the same compound, the phenotypic distance ([14]; 37 nM) was 1.05, the phenotypic distance ([14]; 111.1 nM) was 0.841 and the phenotypic distance ([14]; 333.3 nM) was 0.778. It also gave a phenotypic distance ([14]; 1000 nM) of 0.516 and a phenotypic distance ([14]; 3000 nM) of 0.396.
With `CCCCCCCCCCCCCCCC[N+](C)(C)CCN(Cc1ccc(OC)cc1)c1ncccn1` [Thonzonium bromide] the surviving fraction ([1]; 4.1 nM) was 0.966, the surviving fraction ([1]; 12.3 nM) was 1.03 and the surviving fraction ([1]; 37 nM) was 1.03. The surviving fraction ([1]; 111.1 nM) was 0.987, the surviving fraction ([1]; 333.3 nM) was 0.962 and the surviving fraction ([1]; 1000 nM) was 0.854. The surviving fraction ([1]; 3000 nM) was 0.00843, the surviving fraction ([2]; 4.1 nM) was 0.925 and the surviving fraction ([2]; 12.3 nM) was 1.04. The surviving fraction ([2]; 37 nM) was 1.04, the surviving fraction ([2]; 111.1 nM) was 1.04 and the surviving fraction ([2]; 333.3 nM) was 1.13. It also gave a surviving fraction ([2]; 1000 nM) of 1.01, a surviving fraction ([2]; 3000 nM) of 0.00426 and a surviving fraction ([3]; 4.1 nM) of 0.999. For the same compound, the surviving fraction ([3]; 12.3 nM) was 0.934, the surviving fraction ([3]; 37 nM) was 0.968 and the surviving fraction ([3]; 111.1 nM) was 0.955. It also gave a surviving fraction ([3]; 333.3 nM) of 0.924, a surviving fraction ([3]; 1000 nM) of 0.859 and a surviving fraction ([3]; 3000 nM) of 0.00702. For the same compound, the surviving fraction ([4]; 4.1 nM) was 1.16, the surviving fraction ([4]; 12.3 nM) was 1.1 and the surviving fraction ([4]; 37 nM) was 1.09. For the same compound, the surviving fraction ([4]; 111.1 nM) was 0.966, the surviving fraction ([4]; 333.3 nM) was 0.882 and the surviving fraction ([4]; 1000 nM) was 0.731. For the same compound, the surviving fraction ([4]; 3000 nM) was 0.034, the surviving fraction ([5]; 4.1 nM) was 1.08 and the surviving fraction ([5]; 12.3 nM) was 0.936. For the same compound, the surviving fraction ([5]; 37 nM) was 1.09, the surviving fraction ([5]; 111.1 nM) was 1.01 and the surviving fraction ([5]; 333.3 nM) was 0.814. It also gave a surviving fraction ([5]; 1000 nM) of 0.696, a surviving fraction ([5]; 3000 nM) of 0.00389 and a surviving fraction ([6]; 4.1 nM) of 1.04. It also gave a surviving fraction ([6]; 12.3 nM) of 0.969, a surviving fraction ([6]; 37 nM) of 0.906 and a surviving fraction ([6]; 111.1 nM) of 0.816. The surviving fraction ([6]; 333.3 nM) was 0.606, the surviving fraction ([6]; 1000 nM) was 0.555 and the surviving fraction ([6]; 3000 nM) was 0.19. It also gave a surviving fraction ([7]; 4.1 nM) of 1.03, a surviving fraction ([7]; 12.3 nM) of 0.954 and a surviving fraction ([7]; 37 nM) of 1.04. The surviving fraction ([7]; 111.1 nM) was 0.965, the surviving fraction ([7]; 333.3 nM) was 0.876 and the surviving fraction ([7]; 1000 nM) was 0.699. For the same compound, the surviving fraction ([7]; 3000 nM) was 0.0452, the phenotypic distance ([8]; 4.1 nM) was 0.872 and the phenotypic distance ([8]; 12.3 nM) was 0.488. The phenotypic distance ([8]; 37 nM) was 0.498, the phenotypic distance ([8]; 111.1 nM) was 0.528 and the phenotypic distance ([8]; 333.3 nM) was 1.11. For the same compound, the phenotypic distance ([8]; 1000 nM) was 1.7, the phenotypic distance ([8]; 3000 nM) was 15.4 and the phenotypic distance ([9]; 4.1 nM) was 0.446. For the same compound, the phenotypic distance ([9]; 12.3 nM) was 0.566, the phenotypic distance ([9]; 37 nM) was 0.663 and the phenotypic distance ([9]; 111.1 nM) was 1.07. For the same compound, the phenotypic distance ([9]; 333.3 nM) was 1.33, the phenotypic distance ([9]; 1000 nM) was 1.72 and the phenotypic distance ([9]; 3000 nM) was 9.5. The phenotypic distance ([10]; 4.1 nM) was 0.743, the phenotypic distance ([10]; 12.3 nM) was 3.16 and the phenotypic distance ([10]; 37 nM) was 0.638. For the same compound, the phenotypic distance ([10]; 111.1 nM) was 0.6, the phenotypic distance ([10]; 333.3 nM) was 0.582 and the phenotypic distance ([10]; 1000 nM) was 0.946. The phenotypic distance ([10]; 3000 nM) was 11.4, the phenotypic distance ([11]; 4.1 nM) was 0.672 and the phenotypic distance ([11]; 12.3 nM) was 0.609. It also gave a phenotypic distance ([11]; 37 nM) of 0.797, a phenotypic distance ([11]; 111.1 nM) of 1.23 and a phenotypic distance ([11]; 333.3 nM) of 1.32. The phenotypic distance ([11]; 1000 nM) was 1.09, the phenotypic distance ([11]; 3000 nM) was 9.07 and the phenotypic distance ([12]; 4.1 nM) was 0.34. For the same compound, the phenotypic distance ([12]; 12.3 nM) was 0.451, the phenotypic distance ([12]; 37 nM) was 0.622 and the phenotypic distance ([12]; 111.1 nM) was 1.04. For the same compound, the phenotypic distance ([12]; 333.3 nM) was 0.781, the phenotypic distance ([12]; 1000 nM) was 1.5 and the phenotypic distance ([12]; 3000 nM) was 13.5. It also gave a phenotypic distance ([13]; 4.1 nM) of 0.516, a phenotypic distance ([13]; 12.3 nM) of 0.581 and a phenotypic distance ([13]; 37 nM) of 0.657. The phenotypic distance ([13]; 111.1 nM) was 1.02, the phenotypic distance ([13]; 333.3 nM) was 1.87 and the phenotypic distance ([13]; 1000 nM) was 1.97. The phenotypic distance ([13]; 3000 nM) was 5.26, the phenotypic distance ([14]; 4.1 nM) was 0.779 and the phenotypic distance ([14]; 12.3 nM) was 0.535. The phenotypic distance ([14]; 37 nM) was 0.676, the phenotypic distance ([14]; 111.1 nM) was 0.729 and the phenotypic distance ([14]; 333.3 nM) was 1.9. The phenotypic distance ([14]; 1000 nM) was 1.38 and the phenotypic distance ([14]; 3000 nM) was 10.2.
